From US11970469B2 (Oxford University Innovation Limited, priority 2018, dated 2024)

Biological target: GST-human KRas166 (G12V) GPPNHP (Homo sapiens, UniProt P01116, G12V)
Assay: KRas small-molecule screening by SPR (BIACORE T200)
Format: binding
Parameters: KRAS166 (G12V) was immobilized between 10,000 to 15,000 Response Units; made in house; host or cells: E. coli C41(DE3)
Details: compounds at final concentration of 100 uM; immobilised KRAS166 (G12V) GPPNHP; no unit printed (method speaks of response units)
Method: For SPR assays pGEX-KRAS(G12V) plasmid was transformed into E. coli C41(DE3). Bacterial cells were cultured at 37° C. to an OD600 of 0.6 and induced with IPTG (final 0.1 mM) at 18° C. over night. The GST fusion proteins were extracted from bacteria pellets after cell disruption in 140 mM NaCl, 2.7 mM KCl, 10 mM NaH2PO4, 1.8 mM KH2PO4, 1 mM EDTA, 2 mM MgCl2 pH 7.4 and purified by glutathione-sepharose column chromatography (GE Healthcare), eluting with 50 mM Tris-HCl pH8.0, 10 mM reduced glutathione, 1 mM DTT, 2 mM MgCl2. The eluted proteins were dialysed against 50 mM Tris-HCl pH8.0, 1 mM DTT, 2 mM MgCl2 and concentrated to 10 mg/ml using a Biomax-30 ULTRAFREE-15 centrifugal filter device (Millipore). Purified KRAS protein was loaded with GPPNHP as described elsewhere (Pacold et al., 2000). Loaded protein was then purified by gel filtration on a HiLoad Superdex-75 HR column (GE Healthcare) in 1×PBS pH7.4, 5 mM MgCl2 and concentrated for storage. Protocol for KRas small-molecule screening and affinity measurements by SPR
To a previously immobilized CM5 chip (GE Healthcare BR-1005-30) with anti GST antibody via amine coupling method, GST in channel 1 and GST-human KRas166 (G12V) GPPNHP in channel 2 were immobilised. GST was immobilised between 2,000 and 5,000 Response units. KRAS166 (G12V) was immobilized between 10,000 to 15,000 Response Units. […]

SPR: 33
Compound: COc1cccc(-c2ccc(Nc3ccc(C(=O)NCC4CCN(C(=O)OC(C)(C)C)CC4)cc3)cc2)c1 [Example 19]
